According to patent US20220235049A1, “SUBSTITUTED PYRROLO [2, 3-b] PYRIDINE AND PYRAZOLO [3,4-b] PYRIDINE DERIVATIVES AS PROTEIN KINASE INHIBITORS” (Fochon Pharmaceuticals, Ltd., priority 2019, published 2022):
Where two headings read alike, the source gives them in different places.

How the values were obtained:
BTK (C481S) = molecular target: T1, BTK (C481S) (Homo sapiens, UniProt Q06187, C481S); experiment: Kinase assay of BTK (C481S), [33P]-ATP filter-binding, at Reaction Biology Corporation; assay type: biochemical; conditions: 10 μM ATP, 20 min preincubation, 120 min reaction
T1 construct: purchased SignalChem B10-12CH
Procedure: The kinase activity of BTK (C481S) was assayed at Reaction Biology Corporation. The substrate in the BTK (C481S) reaction, pEY (poly[Glu:Tyr] (4:1)) (Sigma, Cat. #P7244-250MG), was prepared in fresh reaction buffer (20 mM Hepes (pH 7.5), 10 mM MgCl2, 1 mM EGTA, 0.02% Brij35, 0.02 mg/ml BSA, 0.1 mM Na3VO4, 2 mM DTT, 1% DMSO). BTK(C481S) (SignalChem, Cat. #B10-12CH) was delivered into the substrate solution and mixed gently. The final concentrations of BTK (C481S) and the substrate in the reaction mixture were 6 nM and 0.2 mg/ml, respectively. Compounds were tested in 10-point concentration/response mode with 3-fold serial dilution steps starting at 1 μM.
Compounds in 100% DMSO were delivered into the kinase reaction mixture by acoustic liquid delivery technology (Echo550; nanoliter range) and incubated for 20 min at room temperature. 10 μM [^33P]-ATP (ATP: Sigma, Cat #: A7699; [^33P]-ATP: Hartmann Analytic, Cat #: SCF-301-12) was delivered into the reaction mixture to initiate the reaction. The mixture was incubated for 120 min at room temperature. Radioactivity was detected utilizing a proprietary filter-binding method. Kinase activity data were expressed as the percent remaining kinase activity in test samples compared to vehicle (DMSO) reactions. IC50 values were obtained using GraphPad Prism software.
Select compounds prepared as described above were assayed according to the biological procedures described herein.

DOHH2 cells = experiment: Cell proliferation assay in DOHH2 cells (MTS); assay type: cell-based; conditions: Homo sapiens, DOHH-2, 120 h
In short: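 DOHH2 cells at 5000/well were treated with compound at 1.5–10000 nM for 120 h at 37 °C, as a proxy for BTK inhibition. Proliferation was read by MTS for 2 h, stopped with SDS, and absorbance measured at 490 nm with 650 nm reference; IC50 was fitted from the curve.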

[1] = Pharmacokinetics in male Sprague-Dawley rats; assay type: in vivo; conditions: rat; for Cmax: read-out: Cmax/C0; for MRT last: read-out: MRT0-t
Procedure: The purpose of this study was to determine the pharmacokinetics of Example 71 and Example 75 in male Sprague-Dawley rats (Supplied by Beijing Vital River Laboratory Animal Technology Co., Ltd.).
Animals in Group 1 were administered with Example 71 by single intravenous bolus injection at 1 mg/kg, which was formulated in 60% Phosal 50 PG (Lipoid, Batch #368315-3180028/009): 30% PEG400 (Sigma, Batch #MKCH6281): 10% Ethanol (Merck, Batch #K48244883634) at 1 mg/mL as a solution. Animals in Group 2 were administered with Example 71 by single oral gavage (PO) administration at 5 mg/kg, which was formulated in 60% Phosal 50 PG (Lipoid, Batch #368315-3180028/009): 30% PEG400 (Sigma, Batch #MKCH6281): 10% Ethanol (Merck, Batch #K48244883634) at 1 mg/mL as a solution. Blood samples were collected at 0.083, 0.25, 0.5, 1, 2, 4, 8, 12 and 24 hours post-dose. Concentrations of Example 71 in plasma were determined by LC/MS/MS (LC: Waters UPLC; MS: API4000).
Animals in Group 3 were administered with Example 75 by single intravenous bolus injection at 2 mg/kg, which was formulated in 10% DMSO (Sigma, Batch #LPC0S181): 60% PEG400 (Sigma, Batch #MKCH6281): 30% water at 2 mg/mL as a solution. Animals in Group 4 were administered with Example 75 by single oral gavage (PO) administration at 10 mg/kg, which was formulated in 10% DMSO (Sigma, Batch #LPC0S181): 60% PEG400 (Sigma, Batch #MKCH6281): 30% water at 2 mg/mL as a solution. Blood samples were collected at 0.083, 0.25, 0.5, 1, 2, 4, 8, 12 and 24 hours post-dose. Concentrations of Example 75 in plasma were determined by LC/MS/MS (LC: Waters UPLC; MS: Triple Quad 6500 plus).

[2] = male, Sprague-Dawley, plasma, iv, 1 mg/kg
[3] = male, Sprague-Dawley, plasma, po, 5 mg/kg

T1 sequence (Q06187 whole entry C481S): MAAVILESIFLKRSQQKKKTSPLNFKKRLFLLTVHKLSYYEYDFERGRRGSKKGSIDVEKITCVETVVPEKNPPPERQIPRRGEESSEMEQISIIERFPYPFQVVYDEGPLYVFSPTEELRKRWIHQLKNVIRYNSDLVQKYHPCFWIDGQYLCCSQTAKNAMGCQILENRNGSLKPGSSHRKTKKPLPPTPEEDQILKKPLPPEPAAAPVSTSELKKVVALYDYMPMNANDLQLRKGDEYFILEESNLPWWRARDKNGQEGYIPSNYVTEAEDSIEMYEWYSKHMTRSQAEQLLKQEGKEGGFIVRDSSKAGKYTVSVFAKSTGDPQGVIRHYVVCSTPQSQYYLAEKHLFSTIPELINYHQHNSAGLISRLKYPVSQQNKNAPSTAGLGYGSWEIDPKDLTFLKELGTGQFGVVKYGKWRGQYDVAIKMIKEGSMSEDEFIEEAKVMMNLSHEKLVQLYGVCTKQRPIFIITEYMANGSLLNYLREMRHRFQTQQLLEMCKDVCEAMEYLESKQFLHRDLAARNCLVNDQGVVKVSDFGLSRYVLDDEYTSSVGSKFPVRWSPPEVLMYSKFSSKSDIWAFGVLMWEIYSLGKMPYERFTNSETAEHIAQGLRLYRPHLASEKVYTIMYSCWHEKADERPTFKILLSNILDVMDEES

| IC50 (BTK (C481S)) [nM] | AUC(0-inf) [1, 2] [ng·h/mL] | AUC(0-t) [1, 2] [ng·h/mL] | clearance [1, 2] [mL/min/kg] | half-life [1, 2] [min] | Cmax [1, 2] [ng/mL] | MRT last [1, 2] [h] | Vd ([1]; male, Sprague-Dawley, plasma, iv, 1 mg/kg, read-out: Vdss) [L/kg] | AUC(0-inf) [1, 3] [ng·h/mL] | AUC(0-t) [1, 3] [ng·h/mL] | Tmax [1, 3] [h] | half-life [1, 3] [min] | Cmax [1, 3] [ng/mL] | MRT last [1, 3] [h] | F ([1]; po 5 mg/kg vs iv 1 mg/kg) [%] | SMILES | IC50 (DOHH2 cells) [nM] |
| --- | --- | --- | --- | --- | --- | --- | --- | --- | --- | --- | --- | --- | --- | --- | --- | --- |
| 0.77 | 3770 | 3760 | 4.7 | 184 | 4360 | 1.93 | 0.541 | 10100 | 10100 | 4 | 164 | 1680 | 5.26 | 53.7 | CCOc1cnc2[nH]cc(C(=O)c3ccc(Oc4ccccc4F)cc3F)c2c1N[C@@H]1CC[C@@H](CO)OC1 [Example 71, (5-ethoxy-4-(((3R,6S)-6-(hydroxymethyl)tetrahydro-2H-pyran-3-yl)amino)-1H-pyrrolo[2,3-b]pyridin-3-yl)(2-fluoro-4-(2-fluorophenoxy)phenyl)methanone] | 1 |
| 2.22 |  |  |  |  |  |  |  |  |  |  |  |  |  |  | O=C(c1ccc(Oc2ccccc2)cc1Cl)c1c[nH]c2nccc(N[C@@H]3CC[C@@H](CO)OC3)c12 [Example 2, (2-Chloro-4-phenoxyphenyl)(4-(((3R,6S)-6-(hydroxymethyl)tetrahydro-2H-pyran-3-yl)amino)-1H-pyrrolo[2,3-b]pyridin-3-yl)methanone] | 26 |
